Test results as given in US5358936A, “Anionic furanose derivatives, methods of making and using the same” (Gordon; Paul, priority 1991, dated 1994).
“Also recorded” adds a separate entry of the source. Where a name gives a salt, the structure may show the parent alone. Read-outs that look alike come from different tables or passages of the source.

Key:
[1] = tested on: peritoneal neutrophils; experiment: In vitro neutrophil chemotaxis toward zymosan-activated rat serum (Example 24); format: cell-based, mouse; conditions: for IC50: 6 h, read-out: ID50 (molar concentration that inhibited chemotaxis by 50 percent)
Method: In vitro neutrophil chemotaxis studies were carried out by standard methods, as follows:
Mice were injected with complete Freund's adjuvant (CFA) and peritoneal cells, principally neutrophjls (>90 percent), were reproved from the mice 24 hours thereafter. Blind-well chemotactic chambers (Nucleopore Corp., Pleasanton, Calif.) were utilized.
Medium (RPMI 1640 plus 10 percent fetal calf serum) or medium plus 20 percent zymosan-activated rat serum (ZAS) was added to the lower compartment of each chamber. A nucleopore filter (8 μm pore size) was placed between compartments and 1×10^5 peritoneal neutrophils (above) suspended in medium were placed in the upper compartment. Chambers were incubated for six hours, after which time the filters were removed and stained with Giemsa stain. The number of cells on the lower surface of the filter was counted under a microscope. Treatment groups were assayed in duplicate.
The studies were carried out more specifically as follows:
Zymosan (Sigma Chemical Co., St. Louis, Mo.) was mixed with rat serum for one hour at 37° C. at 1 milligram (mg)/ml. The resulting chemoattractant composition was filtered, aliquotted and stored frozen at -70° C. prior to use.
The above chemoattractant composition was used as a 20 percent v/v solution in medium.
The chemotaxis chambers were arranged as follows:
The chambers were incubated at 37° C. for six hours, after which the chambers were dismantled, and the filters removed and treated as follows:
a) The filters were immersed in Giemsa stain diluted 1:50 for 30-45 minutes.
b) The stained filters were rinsed gently in distilled water for 3-5 minutes.
c) The stained, rinsed filters were air dried without blotting.
Several compounds described herein and control compounds ("drug", above) were examined at various concentrations, in duplicate. The molar concentration of a drug that inhibited the observed chemotaxis by 50 percent, defined as the ID50 value, was determined as shown below.

[2] = tested on: rat paw; conditions: in vivo; cited from earlier work
[3] = tested on: rat paw; experiment: Post-ischemic reperfusion paw swelling (Example 22); format: in vivo, Sprague Dawley male rats; conditions: for Swelling change as a result of treatment: 30 minutes; for Post-ischemic reperfusion 30 minute paw swelling, Mn ± SE: P < 0.02; for % Change as a result of treatment / Paw swelling, Mean ± SE: another study; for Paw swelling, Mean ± SE: i.p. 45 minutes prior
From the text: This important disease model is used to evaluate aspects of tissue injury that occur in heart attack, or myocardial infarction, and stroke. Under these conditions, a significant period of injury can occur after blood flow has been restored, during the period of reperfusion.
To produce ischemia, blood flow to the left hind foot was largely interrupted by application of a tourniquet made up of two size 18 rubber bands wound eight times around the leg just behind the heel. […] Both application and removal of tourniquet were carried out under ether anesthesia. Injury was equated with organ swelling, which was assayed by measurement of the dorsoventral foot diameter with a Schnelltaster caliper, just before application of the tourniquet and at various times following tourniquet removal, during the reperfusion period.
Rats employed were Sprague Dawley males, weighing 240-280 grams. Drug comparisons were made here employing measurements 30 minutes into the reperfusion period. The widely studied drug allopurinol, a xanthine oxidase inhibitor and a free radical scavenging agent, used in the treatment of gout, and widely used to suppress experimental post-ischemic reperfusion injury was used as an experimental treatment standard. In studies below, allopurinol and all new drugs were given intraperitoneally 45-60 minutes prior to application of the tourniquet. Data are reported as the mean swelling (Mn)±standard error (SE). […] Group n is 5 or 6.
In another study, drug comparisons were made at various times after the reperfusion period. In this study, control and drug treatment groups were as above.

[4] = tested on: gastric submucosal thrombi; experiment: Inhibition of gastric submucosal thrombi (Example 30); format: in vivo, rat; conditions: 10 mg/kg IV
Method: Thrombosis was induced in rat stomach submucosal blood vessels by the following two-step treatment. First, 1.5 ml of 100 percent ethanol was administered by oral gavage. This produces non-specific injury to tissues and blood vessels of the gastric mucosa. Second, 1.0 mg of adenosine diphosphate (ADP) in 1.0 ml of H2 O, was administered by oral garage 15 minutes after the administration of ethanol. Administration of ADP biases the organ response towards thrombosis by inducing platelet aggregation.
The pathology generated is typically a disseminated pattern of multiple small thrombi, observed on examination of the gastric mucosa, 1-3 hours after ethanol administration. These thrombi are dark red, dilated, thrombosed submucosal blood vessel segments, each being approximately 1 mm thick and 2 to 6 mm long.
In these studies, animals were treated with drug or centrol at one hour prior to ethanol administration. Thrombosis was induced as discussed before, and animals were sacrificed at 1.5 hours after ethanol administration. Focal thrombi were then counted. In this study, n=9-10.

[5] = tested on: platelet aggregation; experiment: Mouse tail bleeding time (Example 31 B); format: in vivo; conditions: for % Increase in bleeding time / Mouse Tail Bleeding Time: 100 mg/kg intraperitoneal; for Mouse Tail Bleeding Time: control 37.0 ± 5.25
Method: A study of mouse tail bleeding time, which is an in vivo model of platelet aggregation and thrombosis was also conducted. In this widely employed model, bleeding was induced by a standardized transection of the tail tip and subsequent bleeding time was determined after vertical immersion of the tails in isotonic saline at 37° C. for thirty seconds.
Two compounds of the invention, Compound III and Compound VIII, were assessed as compared with aspirin, in another study of mouse tail bleeding time. In this study, the mice were housed in a standard animal room rather than in a noisy small animal isolator. Also, all three drugs were administered by an intraperitoneal route, rather than a subcutaneous route for Compound III and an intraperitoneal route for aspirin.

[6] = Dissolution and buffering of suspensions, HCl titration (Example 16)
From the text: Note that the term "apparent pK" in this context is meant to encompass the maximization of buffering that come both from solid-state dissolution and its titration as solute.

[7] = tested on: stomach ulcers; experiment: Gastric ulcers in rats with corona virus infection treated with indomethacin (Example 26); format: in vivo, rat; conditions: indomethacin 30 mg/kg oral
From the text: Corona virus is a non-lethal upper respiratory viral pathogen that not infrequently infects rat colonies. It is a type of rodent coryza or catarrh, the equivalent of a disease that falls somewhere between human influenza and a severe common cold. The animals of this study suffered from this condition, a circumstance which was evident by observation, and which was confirmed by virological diagnosis at the Biological Resources Laboratory of the University of Illinois at Chicago. Since stress is a common component of peptic ulcer development in both animals and man, it was concluded that this feature of the status of these experimental animals rendered them appropriate for an ulcer study.
In this study, animals were not food deprived and were divided into treatment groups such that 15 rats received 30 mg/kg indomethacin alone (in water by oral gavage), 14 rats received indomethacin plus an injection of 25 mg/kg cimetidine subcutaneously, and 7 rats received indomethacin plus subcutaneous injection of 17.5 mg/kg of Compound III.
All animals were sacrificed by ether euthanasia 24 hours later and their stomachs evaluated for ulcer pathology. In this study ulcers were not hemorrhagic. Results are shown below as the average number of stomach ulcers per stomach.

[8] = Mus musculus, Neutrophil, 20 percent zymosan-activated rat serum, six hours, 37° C.
[9] = Mus musculus, Neutrophil, dose 0.1 μg/ml, read-out: Percent Inhibition of chemotaxis
[10] = Mus musculus, Neutrophil, dose 1.0 μg/ml, read-out: Percent Inhibition of chemotaxis
[11] = Mus musculus, Neutrophil, dose 10.0 μg/ml, read-out: Percent Inhibition of chemotaxis
[12] = Mus musculus, Neutrophil, read-out: Percent Inhibition of chemotaxis

CCC1(CC)O[C@H]2O[C@H]([C@@H](COS(=O)(=O)O)OS(=O)(=O)O)[C@H](OS(=O)(=O)O)[C@H]2O1 [Compound V, 1,2-O-(3-Pentylidene)-3,5,6-tri-O-sulfo-α-D-glucofuranose, tripotassium salt]
IC50 [1, 8]: 2 µM | inhibition at 0.1 µg/mL [1, 9]: -8% | inhibition at 1 µg/mL [1, 10]: 62% | inhibition at 10 µg/mL [1, 11]: 101%

CC(=O)Nc1ccc(C=Cc2ccc(N=C=S)cc2S(=O)(=O)O)c(S(=O)(=O)O)c1 [SITS, 4-acetamido-4'-isothiocyano-stilbene-2,2'-disulfonate, reference compound]
IC50 ([1]; Mus musculus, Neutrophil): > 20 µM | inhibition at 0.1 µg/mL [1, 12]: 18.5% | inhibition at 1 µg/mL [1, 12]: -12.5% | inhibition at 10 µg/mL [1, 12]: 48.5%

Oc1ncnc2[nH]ncc12 [Allopurinol, reference compound]
effect on edema that develops following removal of the tourniquet, in words [2]: suppress the edema | near toxic level at which allopurinol is utilized in reperfusion injury [2]: 20 to 30 mg/kg | Swelling change as a result of treatment ([3]; study B, i.p., Compound III 0.2 mg/kg, allopurinol 20 mg/kg): -35% | Post-ischemic reperfusion 30 minute paw swelling, Mn ± SE ([3]; study B, i.p., Compound III 0.2 mg/kg, allopurinol 20 mg/kg, control 20.5 ± 0.76): 13.3 ± 0.56 0.1 mm

CC1(C)O[C@H]2O[C@H]([C@@H](COS(=O)(=O)O)OS(=O)(=O)O)[C@@H](OS(=O)(=O)O)[C@H]2O1 [Compound VIII, 1,2-O-(2-Propylidene)-3,5,6-tri-O-sulfo-α-D-allofuranose, tripotassium salt]
Drug Effect on thrombi [4]: -38.1% | Mean Thrombi per Stomach, ±SE ([4]; ethanol + ADP, control 10.60 ± 1.42): 6.56 ± 1.60 per Stomach | paw swelling less than control ([3]; 60 minutes of reperfusion time, i.p.): 71% | % Change as a result of treatment ([3]; reperfusion time 20 mins., i.p.): -46% | Paw swelling, Mean ± SE ([3]; reperfusion time 20 mins., control 8.20 ± 1.02): 4.60 ± 0.40 0.1 mm | % Change as a result of treatment ([3]; reperfusion time 30 mins., i.p.): -64% | Paw swelling, Mean ± SE ([3]; reperfusion time 30 mins., control 6.60 ± 0.87): 2.40 ± 0.51 0.1 mm | % Increase in bleeding time [5]: 278% | Mouse Tail Bleeding Time [5]: 139.88 ± 28.23 s | potency relative to aspirin in prolonging mouse tail bleeding time / suppressing platelet aggregation ([5]; first study: aspirin 75 mg/kg IP, Compound III s.c. or oral, second study: all IP 100 mg/kg, tripotassium salt): more effective than aspirin; also recorded: more potent than aspirin in the suppression of platelet aggregation

CCCCC[C@H](O)/C=C/[C@H]1[C@H](O)CC(=O)[C@@H]1C/C=C\CCCC(=O)O [PGE2, Prostaglandin E2, reference compound]
IC50 [1, 8]: 0.1 µM | inhibition at 0.01 µg/mL ([1]; Mus musculus, Neutrophil, dose 0.01 μg/ml, read-out: Percent Inhibition of chemotaxis): 71% | inhibition at 0.1 µg/mL [1, 9]: 91.5% | inhibition at 0.2 µg/mL ([1]; Mus musculus, Neutrophil, dose 0.2 μg/ml, read-out: Percent Inhibition of chemotaxis): 71.5% | relative activity in inhibiting neutrophil chemotaxis, in words ([1]; in vitro): about equally as active as Compound III

[OH][Al]([OH])[OH] [aluminum trihydroxide, reference compound]
HCl needed to lower pH of suspension to below pH 2.00 ([6]; 50 mg in 20 ml distilled water, initial pH 4.44 (aluminum trihydroxide), 4.91 (sucralfate), 4.23 (Compound III:Al), water alone 0.30): 0.90 meq | buffering action, in words ([6]; HCl titration): only minor buffering power relative to distilled H2 O, but no pK

CCCCC1(CCCC)O[C@H]2O[C@H]([C@@H](COS(=O)(=O)O)OS(=O)(=O)O)[C@H](OS(=O)(=O)O)[C@H]2O1 [Compound IV, 1,2-O-(5-Nonylidene)-3,5,6-tri-O-sulfo-α-D-glucofuranose, tripotassium salt]
IC50 [1, 8]: > 10 µM | inhibition at 1 µg/mL [1, 10]: 44% | Percent Inhibition of chemotaxis ([1]; dose 1.0 μg/ml, tripotassium salt): 28.5% | Post-ischemic reperfusion 30 minute paw swelling, Mn ± SE ([3]; study D, 0.2 mg/kg i.p., control 11.4 ± 0.51): 21.2 ± 2.25 0.1 mm | Swelling change as a result of treatment ([3]; study D, 0.2 mg/kg i.p., edema enhancement): +86%

CC(=O)Oc1ccccc1C(=O)O [Aspirin, reference compound]
% Increase in bleeding time [5]: 97% | Mouse Tail Bleeding Time [5]: 72.88 ± 10.9 s

O=C(O)Cc1ccccc1Nc1c(Cl)cccc1Cl [diclofenac]
effect on edema that develops following removal of the tourniquet, in words [2]: not effective at any time

O=S(=O)(O)OC[C@@H](OS(=O)(=O)O)[C@H]1O[C@H](O)[C@H](O)[C@H]1OS(=O)(=O)O [Compound II, 3,5,6-Tri-O-sulfo-α-D-glucofuranose, tripotassium salt]
IC50 ([1]; Mus musculus, Neutrophil): 30 µM | inhibition at 0.1 µg/mL [1, 12]: 2.5% | inhibition at 1 µg/mL [1, 12]: 45.5% | inhibition at 10 µg/mL [1, 12]: 48.5%

CN/C(=N/CCSCc1nc[nH]c1C)NC#N [Cimetidine, reference compound]
Percent Inhibition of ulcer frequency ([7]; cimetidine 25 mg/kg s.c. or Compound III 17.5 mg/kg s.c.): 58% | Ulcer Frequency per stomach, Mn ± SE ([7]; cimetidine 25 mg/kg s.c. or Compound III 17.5 mg/kg s.c. where given, P<0.02): 1.07 ± 0.25 Per Stomach

C[C@]12C=CC(=O)C=C1CC[C@@H]1[C@@H]2C(=O)C[C@@]2(C)[C@H]1CC[C@]2(O)C(=O)CO [Prednisone, reference compound]
IC50 [1, 8]: > 50 µM | inhibition at 0.1 µg/mL [1, 9]: 15.5% | inhibition at 1 µg/mL [1, 10]: 16% | inhibition at 10 µg/mL [1, 11]: 20%

O=S(=O)(O)OC[C@H]1O[C@H](OS(=O)(=O)O)[C@H](O)[C@@H](OS(=O)(=O)O)[C@@H]1O [Compound VII, 1,3,6-Tri-O-sulfo-α-D-glucopyranose, tripotassium salt, reference compound]
IC50 ([1]; Mus musculus, Neutrophil): < 100 µM | inhibition at 0.1 µg/mL [1, 12]: 8% | inhibition at 1 µg/mL [1, 12]: 23% | inhibition at 10 µg/mL [1, 12]: 29%

C[C@@H]1C[C@H]2[C@@H]3CCC4=CC(=O)C=C[C@]4(C)[C@@]3(F)[C@@H](O)C[C@]2(C)[C@@]1(O)C(=O)CO [Dexamethasone]
effect on edema that develops following removal of the tourniquet, in words [2]: effective only when administered more than three hours in advance
